Key:
HCT116-mock-RNA-KO = assay: Cell killing in HCT116 isogenic pair (Cell Titer-Glo viability), mock knock-out cells with MTAP wildtype genotype; format: cell-based, human; conditions: Homo sapiens, HCT-116, 144 h, 6 days incubation, 0-10 μM
From the text: (§1) HCT116 cell line (ATCC, CCL-247) was isolated from the colon of an adult with colon cancer. It has a mutation in codon 13 of the ras proto-oncogene and can be used as a positive control for PCR assays of mutation in this codon. HCT116-MTAP-KO was knocked-out-MTAP-gene based HCT116, and a single clone was passed for this assay. HCT116-mock-RNA-KO was knocked-out-mock-gene based HCT116 with MTAP wildtype genotype. The base medium for HCT116 isogenic pair is RPMI 1640, HEPES (Gibco, 22400105). To make the complete growth medium, added the following components to the base medium: fetal bovine serum to a final concentration of 10% (Gibco, 10099-141C). The cell line was grown in a humidified 5% CO2 atmosphere at 37° C. and regularly tested for the presence of mycoplasma with MpcoAlert™ PLUS Mycoplasma Detection Kit (Lonzak LT07-710).
(§2) • Seeded HCT116-mock-RNA-KO (4E2/well) or HCT116-MTAP-KO (4E2/well) cells into a 96-well plate (Greiner: 655090), 100 μL/well. • Incubated at 37° C., 5% CO2, overnight. • Added 50 μL fresh growth medium containing serial dilution of test compounds for a final test compound concentration of 0-10 μM to each well. • Incubated at 37° C., 5% CO2, 6 days. • The cell viability was detected by Cell Titer-Glo (Promega, G7573). Added 70 μL of CeliTiter-Glo® reagent in each well. • Incubated at room temperature for 10 minutes to stabilize luminescent signal. • Analyzed with Microplate Reader (TECAN, SPARK) and fit IC50 using Prism® 9.

HCT116-MTAP-KO = assay: Cell killing in HCT116 isogenic pair (Cell Titer-Glo viability), MTAP knock-out cells; format: cell-based, human; conditions: Homo sapiens, HCT-116, 144 h, 6 days incubation, 0-10 μM, * = more than 50% viability inhibition at tested concentration without a full curve
From the text: as §1, §2

Structure (SMILES) | IC50 (HCT116-mock-RNA-KO) [nM] | IC50 (HCT116-MTAP-KO) [nM]
Nc1nc2cc(C(=O)N(Cc3ccc(-c4c(F)cncc4F)cn3)[C@@H]3CCCc4cccnc43)[nH]c2c2c1COC2 [Example 1, (R)-5-amino-N-((3′,5′-difluoro-[3,4′-bipyridin]-6-yl)methyl)-N-(5,6,7,8-tetrahydroquinolin-8-yl)-6,8-dihydro-1H-furo[3,4-d]pyrrolo[3,2-b]pyridine-2-carboxamide] | 4.6 | < 1.5
Nc1nc2cc(C(=O)N(Cc3ccc(-c4c(F)cccc4F)cn3)[C@@H]3CCCc4cccnc43)[nH]c2c2c1COC2 [Example 2, (R)-5-amino-N-((5-(2,6-difluorophenyl)pyridin-2-yl)methyl)-N-(5,6,7,8-tetrahydroquinolin-8-yl)-6,8-dihydro-1H-furo[3,4-d]pyrrolo[3,2-b]pyridine-2-carboxamide] | 23 | 3.3
Nc1nc2cc(C(=O)N(Cc3c(F)cccc3F)Cc3c(F)cccc3F)[nH]c2c2c1COC2 [Example 3, 5-amino-N,N-bis(2,6-difluorobenzyl)-6,8-dihydro-1H-furo[3,4-d]pyrrolo[3,2-b]pyridine-2-carboxamide] | 221 | 2.4
CO[C@@H]1CCOC[C@H]1N(Cc1ccc(-c2c(F)cccc2F)cn1)C(=O)c1cc2nc(N)c3c(c2[nH]1)COC3 [Example 4, 5-amino-N-((5-(2,6-difluorophenyl)pyridin-2-yl)methyl)-N-((3R,4R)-4-methoxytetrahydro-2H-pyran-3-yl)-6,8-dihydro-1H-furo[3,4-d]pyrrolo[3,2-b]pyridine-2-carboxamide] | 99 | 2.3
Nc1nc2cc(C(=O)N(Cc3c(F)cccc3F)[C@@H]3CCCc4cccnc43)[nH]c2c2c1COC2 [Example 5, (R)-5-amino-N-(2,6-difluorobenzyl)-N-(5,6,7,8-tetrahydroquinolin-8-yl)-6,8-dihydro-1H-furo[3,4-d]pyrrolo[3,2-b]pyridine-2-carboxamide] | 76 | 4
Nc1nc2cc(C(=O)N(Cc3ccc(-c4c(F)cccc4F)cc3F)[C@@H]3CCCc4cccnc43)[nH]c2c2c1COC2 [Example 6, (R)-5-amino-N-(5,6,7,8-tetrahydroquinolin-8-yl)-N-((2′,3,6′-trifluoro-[1,1′-biphenyl]-4-yl)methyl)-6,8-dihydro-1H-furo[3,4-d]pyrrolo[3,2-b]pyridine-2-carboxamide] | 40 | 11
Nc1nc2cc(C(=O)N(Cc3ncccc3F)Cc3ncccc3F)[nH]c2c2c1COC2 [Example 7, 5-amino-N,N-bis((3-fluoropyridin-2-yl)methyl)-6,8-dihydro-1H-furo[3,4-d]pyrrolo[3,2-b]pyridine-2-carboxamide] | 3140 | 30
COCC(C)N(Cc1c(F)cccc1F)C(=O)c1cc2nc(N)c3c(c2[nH]1)COC3 (centres unmarked) [Example 8, 5-amino-N-(2,6-difluorobenzyl)-N-(1-methoxypropan-2-yl)-6,8-dihydro-1H-furo[3,4-d]pyrrolo[3,2-b]pyridine-2-carboxamide] | 2750 | 34
COCC(COC)N(Cc1c(F)cccc1F)C(=O)c1cc2nc(N)c3c(c2[nH]1)COC3 [Example 9, 5-amino-N-(2,6-difluorobenzyl)-N-(1,3-dimethoxypropan-2-yl)-6,8-dihydro-1H-furo[3,4-d]pyrrolo[3,2-b]pyridine-2-carboxamide] | 3440 | 46
Nc1nc2cc(C(=O)N(Cc3c(F)cncc3F)[C@@H]3CCCc4cccnc43)[nH]c2c2c1COC2 [Example 10, (R)-5-amino-N-((3,5-difluoropyridin-4-yl)methyl)-N-(5,6,7,8-tetrahydroquinolin-8-yl)-6,8-dihydro-1H-furo[3,4-d]pyrrolo[3,2-b]pyridine-2-carboxamide] | 247 | 4.6
N#Cc1cnccc1-c1ccc(CN(C(=O)c2cc3nc(N)c4c(c3[nH]2)COC4)[C@@H]2CCCc3cccnc32)nc1 [Example 11, (R)-5-amino-N-((3′-cyano-[3,4′-bipyridin]-6-yl)methyl)-N-(5,6,7,8-tetrahydroquinolin-8-yl)-6,8-dihydro-1H-furo[3,4-d]pyrrolo[3,2-b]pyridine-2-carboxamide] | 69 | 3.8
Nc1nc2cc(C(=O)N(Cc3ccc(-c4c(F)cccc4F)cn3)[C@@H]3CCOc4ccccc43)[nH]c2c2c1COC2 [Example 12, 5-amino-N-(chroman-4-yl)-N-((5-(2,6-difluorophenyl)pyridin-2-yl)methyl)-6,8-dihydro-1H-furo[3,4-d]pyrrolo[3,2-b]pyridine-2-carboxamide] | 1910 | 29
Nc1nc2cc(C(=O)N(Cc3ccc(-c4c(F)cccc4F)cn3)Cc3c(F)cccc3F)[nH]c2c2c1COC2 [Example 13, 5-amino-N-(2,6-difluorobenzyl)-N-((5-(2,6-difluorophenyl)pyridin-2-yl)methyl)-6,8-dihydro-1H-furo[3,4-d]pyrrolo[3,2-b]pyridine-2-carboxamide] | 251 | 4.6
CO[C@@H]1CCOC[C@H]1N(Cc1ccc(-c2c(F)cccc2F)cc1F)C(=O)c1cc2nc(N)c3c(c2[nH]1)COC3 [Example 14, 5-amino-N-((3R,4R)-4-methoxytetrahydro-2H-pyran-3-yl)-N-((2′,3,6′-trifluoro-[1,1′-biphenyl]-4-yl)methyl)-6,8-dihydro-1H-furo[3,4-d]pyrrolo[3,2-b]pyridine-2-carboxamide] | 554 | < 1.5
CO[C@@H]1CCOC[C@H]1N(Cc1ccc(-c2c(F)cncc2F)cn1)C(=O)c1cc2nc(N)c3c(c2[nH]1)COC3 [Example 15, 5-amino-N-((3′,5′-difluoro-[3,4′-bipyridin]-6-yl)methyl)-N-((3R,4R)-4-methoxytetrahydro-2H-pyran-3-yl)-6,8-dihydro-1H-furo[3,4-d]pyrrolo[3,2-b]pyridine-2-carboxamide] | 225 | 8.1
COCC(COC)N(Cc1ccc(-c2c(F)cccc2F)cn1)C(=O)c1cc2nc(N)c3c(c2[nH]1)COC3 [Example 16, 5-amino-N-((5-(2,6-difluorophenyl)pyridin-2-yl)methyl)-N-(1,3-dimethoxypropan-2-yl)-6,8-dihydro-1H-furo[3,4-d]pyrrolo[3,2-b]pyridine-2-carboxamide] | 165 | 1
C[C@@H](c1ncccn1)N(Cc1ccc(-c2c(F)cccc2F)cn1)C(=O)c1cc2nc(N)c3c(c2[nH]1)COC3 [Example 17, (S)-5-amino-N-((5-(2,6-difluorophenyl)pyridin-2-yl)methyl)-N-(1-(pyrimidin-2-yl)ethyl)-6,8-dihydro-1H-furo[3,4-d]pyrrolo[3,2-b]pyridine-2-carboxamide] | 1050 | 8.2
C[C@H](c1ncccn1)N(Cc1ccc(-c2c(F)cccc2F)cn1)C(=O)c1cc2nc(N)c3c(c2[nH]1)COC3 [Example 18, (R)-5-amino-N-((5-(2,6-difluorophenyl)pyridin-2-yl)methyl)-N-(1-(pyrimidin-2-yl)ethyl)-6,8-dihydro-1H-furo[3,4-d]pyrrolo[3,2-b]pyridine-2-carboxamide] | 96 | 1.8
Nc1nc2cc(C(=O)N(Cc3ccc(-c4c(F)cccc4F)cc3F)[C@@H]3CCOc4cccnc43)[nH]c2c2c1COC2 [Example 19, (R)-5-amino-N-(3,4-dihydro-2H-pyrano[3,2-b]pyridin-4-yl)-N-((2′,3,6′-trifluoro-[1,1′-biphenyl]-4-yl)methyl)-6,8-dihydro-1H-furo[3,4-d]pyrrolo[3,2-b]pyridine-2-carboxamide] | 185 | < 1.5
Nc1nc2cc(C(=O)N(Cc3ccc(-c4c(F)cccc4F)cc3F)[C@H]3CCOc4cccnc43)[nH]c2c2c1COC2 [Example 20, (S)-5-amino-N-(3,4-dihydro-2H-pyrano[3,2-b]pyridin-4-yl)-N-((2′,3,6′-trifluoro-[1,1′-biphenyl]-4-yl)methyl)-6,8-dihydro-1H-furo[3,4-d]pyrrolo[3,2-b]pyridine-2-carboxamide] | 4000 | 658
N#Cc1cc(F)c(CN(C(=O)c2cc3nc(N)c4c(c3[nH]2)COC4)[C@@H]2CCCc3cccnc32)c(F)c1 [Example 21, (R)-5-amino-N-(4-cyano-2,6-difluorobenzyl)-N-(5,6,7,8-tetrahydroquinolin-8-yl)-6,8-dihydro-1H-furo[3,4-d]pyrrolo[3,2-b]pyridine-2-carboxamide] | 7 | < 1.5
N#Cc1cc(F)c(CN(Cc2c(F)cccc2F)C(=O)c2cc3nc(N)c4c(c3[nH]2)COC4)c(F)c1 [Example 22, 5-amino-N-(4-cyano-2,6-difluorobenzyl)-N-(2,6-difluorobenzyl)-6,8-dihydro-1H-furo[3,4-d]pyrrolo[3,2-b]pyridine-2-carboxamide] | 11 | < 1.5

Reference: patent publication US20240368177A1, “5-AMINO-6,8-DIHYDRO-1H-FURO[3,4-d]PYRROLO[3,2-b]PYRIDINE-2-CARBOXAMIDE DERIVATIVES AS MTA-COOPERATIVE INHIBITORS OF PRMT5” (BeiGene Switzerland GmbH, priority 2023, published 2024)
